Converted amounts (≈) assume the structure as drawn. Where two headings read alike, the source gives them in different places.
How the values were obtained:
[1] = system: carbon tetrachloride-induced liver damage; test: carbon tetrachloride-induced liver damage in rats; assay type: in vivo; conditions: oral, in comparison with controls
Description: The experiments were carried out by the methods described in Example 1 of the specification of published W. German Patent Application No. 3310556.1 and Japanese Patent Kokai No. 58-164512, except that carbon tetrachloride was used as a 10% solution in olive oil.

[2] = acute toxicity in mice by oral administration; conditions: mouse, in vivo
Description: For example, in a test of acute toxicity in mice by oral administration, the value of LD50 of 6-keto-16S,18S-ethano-20-ethyl-PGE1 for the compound of the present invention is very large; that is the value is more than […] animal body weight.

[3] = system: platelet aggregation induced by adenosine-diphosphoric acid (ADP); test: inhibiting activity on platelet aggregation induced by ADP on human blood; assay type: cell-based; conditions: for IC50: read-out: IC50 (concentration which produces 50%-inhibition of platelet aggregation); for Relative activity against PGE1: relative to PGE1 (control) = 1.00, ADP-induced
Text: The platelet aggregation was induced by adenosine-diphosphoric acid (ADP) on human blood. The IC50 values given in the Table are the concentrations which produce 50%-inhibition of platelet aggregation.
INHIBITING ACTIVITIES ON PLATELET AGGREGATION INDUCED BY ADP

[4] = ADP-induced platelet aggregation, human blood

CCCC[C@H]1CC[C@H]([C@H](O)/C=C/[C@H]2[C@H](O)CC(=O)[C@@H]2CC(=O)CCCCC(=O)O)C1 [6-keto-16S,18S-ethano-20-ethyl-PGE1, 6,9-dioxo-11α,15α-dihydroxy-16S,18S-ethano-20-ethylprost-13E-enoic acid]
inhibition of plasma GOT (glutamic oxalacetic transaminase) ([1]; 20 μg/kg): 47%
inhibition of plasma GPT (glutamic pyruvic transaminase) ([1]; 20 μg/kg): 42%
inhibition of plasma GOT (glutamic oxalacetic transaminase) ([1]; 50 μg/kg): 64%
inhibition of plasma GPT (glutamic pyruvic transaminase) ([1]; 50 μg/kg): 66%
LD50 [2]: > 3 mg/kg
IC50 ([3]; Homo sapiens, Platelet): 0.08 ng/mL (≈ 0.189 nM)
activity as compared with the comparison compound (times as strong) ([3]; compared with compound of Example 2(d) of U.S. Pat. No. 4,278,688, platelet aggregation): about 45 times
Relative activity against PGE1 ([3]; human blood): 431

CCCCC[C@H](O)/C=C/[C@H]1[C@H](O)CC(=O)[C@@H]1CCCCCCC(=O)O [PGE1, reference compound]
IC50 [3, 4]: 34.5 ng/mL (≈ 97.3 nM)

CCCCC1CCC([C@H](O)/C=C/[C@H]2[C@H](O)CC(=O)[C@@H]2CC(=O)CCCCC(=O)OC)C1 (some centres unmarked) [reference compound]
IC50 [3, 4]: 3.6 ng/mL (≈ 8.25 nM)
Relative activity against PGE1 ([3]; human blood): 9.58

Source: patent publication US4562207A, “Prostaglandin analogue” (Ono Pharmaceutical Co., Ltd., priority 1983, dated 1985)
